From US20150056205A1, “STEROID SPARING AGENTS AND METHODS OF USING SAME” (BIOGEN IDEC MA INC., priority 2004, published 2015) come the findings set out here.

Data set [1] relates to adult subjects with Crohn's disease (CD). In words: maintenance of clinical response and remission in Crohn's Disease, six month regimen (Example 10). Type of data set: in vivo, human. The method, then: This experiment was a double-blind, placebo-controlled study of the efficacy, safety, and tolerability of natalizumab in maintaining clinical response and remission in Crohn's Disease.
Natalizumab, a humanized monoclonal IgG4 antibody to α4 integrin, was evaluated in a randomized, controlled study to determine the ability of a six month regimen to maintain clinical response/remission achieved in natalizumab-treated subjects in the […] induction of response/remission study.
Loss of response was defined as a CDAI≧220 and ≧70-point increase from baseline CDAI in the second study or use of rescue intervention. Maintenance of remission was also assessed.

The test system of data set [2] is pregnant cynomolgus monkeys. Description: follow-up reproductive toxicity study. The format is in vivo, cynomolgus monkey. The note with it: two in the control. The method, then: (§1) In mice, there is evidence that α4 integrin and VCAM-1 play a role in placental and cardiac development, and they may also play a wider role in fetal development. There is, therefore, a risk of an abortifacient effect or teratogenicity if α4 integrin is blocked by natalizumab. A preliminary reproductive toxicity study exposed groups of five pregnant cynomolgus monkeys to repeated intravenous doses of 0.06, 0.3, or 30 mg/kg natalizumab. One of five pregnant females in the 30 mg/kg group aborted at Day 31 of gestation after receiving five doses of natalizumab. Because the overall rate of abortion fell within the rate of spontaneous abortion in this species, the event was not believed to be related to natalizumab. An ongoing follow-up reproductive toxicity study has exposed groups of 10 to 15 pregnant cynomolgus monkeys to repeated intravenous doses of 3, 10, or 30 mg/kg. Embryo deaths have occurred at similar rates in all treatment groups: two in the control, one in the 3 mg/kg, two in the 10 mg/kg and two in the 30 mg/kg groups respectively. As a precaution, women of childbearing potential must utilize effective contraception throughout the duration of the study and for at least 3 months after the last infusion of study drug, and must have a negative pregnancy test at the time of each natalizumab dosing.

Data set [3] concerns subjects with Crohn's disease. In words: Phase III maintenance of response and remission study in Crohn's disease (Example 9, second study). Type of data set: in vivo, human. The method, then: A double-blind, placebo-controlled study of the efficacy, safety, and tolerability of intravenous Tysabri (natalizumab, 300 mg monthly) in maintaining clinical response and remission in patients with Crohn's Disease (CD) was performed. The objectives were to compare the ability of natalizumab versus placebo to maintain a clinical response in subjects with CD, to compare the ability of natalizumab versus placebo to maintain a clinical remission in subjects with CD, to compare the effects of natalizumab versus placebo on quality of life as measured by the Inflammatory Bowel Disease Questionnaire (IBDQ), and to compare the ability of natalizumab versus placebo to allow subjects to achieve withdrawal of oral steroids.
A Phase III, international, multicenter, randomized, double-blind, placebo-controlled, parallel-group study of subjects with previously active Crohn's disease (CD) (defined as moderately to severely active, CDAI≧220, <450) who have responded to treatment at Week 10 and maintained that response out to Week 12 in a first study (defined as a ≧70 point decrease in baseline CDAI) and whose disease is mildly active (defined as a CDAI score of <220) was undertaken.
Within this group there was a sub-population who had achieved remission (defined as a CDAI score of <150) at Week 10 of the first study. […] Subjects receiving concomitant medications for their CD were permitted to enroll providing that doses remained stable throughout their participation in the first study. All concomitant medications for CD remained stable for the duration of the 12-month treatment phase (up to Month 15) with the exception of oral steroids which were reduced according to a fixed algorithm). At the time this application was filed, only 9 months of data was available.
Natalizumab was administered 300 mg monthly for 12 infusions. The placebo was administered monthly for 12 infusions. Subjects were stratified according to their disease status (remission versus no remission, i.e., a CDAI<150 or ≧150), concomitant use of oral steroids and concomitant use of immunosuppressants.
Once randomized, subjects received their first infusion. Thereafter, they returned to the clinic on a monthly basis (where 1 month is defined as a 4-week period) for assessment and infusion. Introduction of any new medication for CD or a dose change to an existing concomitant medication for CD (with the exception of oral steroids withdrawn according to the fixed algorithm) […] unless deemed necessary for purposes of rescue intervention. Once rescued, such a subject was considered a treatment failure.
Eligible subjects at Week 10 in the first study were consented and enrolled into the second study, in order to allow subjects taking concomitant oral steroids to begin a steroid taper. Subjects who continued to meet the eligibility criteria at Week 12/Month 3, i.e., in time for their next, monthly infusion, were re-randomized and entered the treatment phase which will last up to 12 months in duration (i.e., up to Month 15). Subjects were male or female, eighteen years of age or older.
All subjects receiving oral steroids were required to undergo a taper immediately upon entry into the second study using the following algorithm. Subjects on doses equivalent to >10 mg of prednisolone will begin their taper at a rate of 5 mg every 7 days until they reach a dose of 10 mg. Subjects on doses equivalent to 10 mg of prednisolone were tapered at a rate of 2.5 mg every 7 days until they are completely withdrawn. Subjects taking budesonide were tapered at a rate of 3 mg every 3 weeks.
The ability of natalizumab to maintain mildly active disease (defined as a CDAI score of <220 and no use of rescue intervention) and remission (defined as a CDAI score of <150 and no use of rescue intervention) in subjects with CD was assessed. […]

Data set [4] deals with subjects diagnosed with chronic active Crohn's disease. In words: placebo-controlled single infusion study in chronic active Crohn's disease. The format is in vivo. As to the method: Earlier studies in Crohn's disease and ulcerative colitis are summarized below. One study was a randomized, double-blind, placebo-controlled, safety, tolerability, and efficacy study of a single infusion of intravenous 3 mg/kg natalizumab in male and female subjects diagnosed with chronic active Crohn's disease. Thirty subjects were enrolled; 18 were treated with natalizumab (3 mg/kg) and 12 with placebo.

The subject of another data set is primates. The following applies: in vivo.
Data set [5] deals with pregnant cynomolgus monkeys. Description: preliminary reproductive toxicity study. Type of data set: in vivo. The note with it: 30 mg/kg group, repeated intravenous doses, Day 31 of gestation after five doses. As to the method: as §1

Source text for primates: The inflammation was characterized by increased numbers of lymphocytes and plasma cells within the lamina propia with occasional crypt abscesses.

For the substance natalizumab, the “subjects taking steroids in the first study who were withdrawn from steroids” value in data set [1] (300 mg monthly, placebo 25%) came out at 55%. Further, the “subjects who maintained clinical remission” value in data set [1] (at 6 months, 300 mg monthly, placebo 26%) is 44%. Besides, the “subjects continuing to meet the criteria for clinical response” value in data set [1] (at 6 months, ITT population, 300 mg monthly, placebo 29%) was found to be 61%. Besides, the tolerability result in data set [1] (monthly administration for 6 months) is on record as “well tolerated”. Besides, the “rates of serious and non-serious adverse events between treatment groups” value in data set [1] (versus placebo) is reported as “No notable difference”. Also, the embryo deaths result in data set [2] (3 mg/kg repeated intravenous doses) is recorded as “one”; in data set [2] (10 mg/kg repeated intravenous doses) it was “two”; in data set [2] (30 mg/kg repeated intravenous doses), “two”. Further, the “patients of the remission population who maintained a response (remission)” value in data set [3] (after 9 months, natalizumab remission population at three months, placebo 25.8%) was determined as 43.8%. The “patients who maintained a response” value in data set [3] (after 9 months, natalizumab responder population at three months, placebo 28.8%) stood at 61.3%. Besides, in data set [3] (month 9, of those who took steroids at first study baseline, 300 mg monthly, placebo 17 (22%)), the “Remission and not taking steroids, number (%) of subjects” value is 31 (46%). Also, the “Not taking steroids, number (%) of subjects” value in data set [3] (month 9, of those who took steroids at first study baseline, 300 mg monthly, placebo 19 (25%)) is recorded as 37 (55%). Besides, in data set [3] (placebo 8%), the “serious adverse events (SAEs)” value stood at 7%. Moreover, the tapering off steroids entry in data set [3] (second study) is reported as “enabled subjects to be successfully tapered off steroids”. Moreover, the “mean CDAI scores compared to mean baseline” value in data set [4] (2 and 4 weeks post-treatment, single 3 mg/kg) is “significantly decreased”. Also, the “subjects requiring rescue therapy” value in data set [4] (Week 2 post-treatment, single 3 mg/kg, placebo 33%) was found to be 11%. For the same substance, in data set [4] (single 3 mg/kg), the “subjects withdrawn because of an adverse event” value was “No subjects”. Moreover, in data set [4] (single 3 mg/kg, 18 treated), the “subjects reporting one serious adverse event” value was “Six”. Moreover, the safety and tolerability result in data set [4] (single intravenous dose of 3 mg/kg, subjects with CD) is “safe and well tolerated”. Besides, the “subjects in clinical remission (CDAI<150)” value in data set [4] (two weeks after single 3 mg/kg intravenous infusion, placebo 8%) is 39%. Also, the “treated animals with minimal to mild lymphoplasmacytic inflammation of the mucosa of the cecum, colon, and/or rectum” value in the data set with primates is recorded as “about half”. Besides, in data set [5], the “pregnant females that aborted” value is given as “One of five”.
